# Data reported in ChEMBL document CHEMBL5150075 (J Med Chem, 2022).
# Calls of active or inactive are those of the source. The calls are words filed in the database; no cut-off is given here.
# Legend:
# [1] = tested on: DU-145; assay: Induction of apoptosis in human DU-145 cells assessed as increase in cleaved PARP level at 0.003 to 0.3 uM incubated for 48 hrs by Western blot analysis; type: functional, cell-based; details: dose 0.003-0.3 µM
# [2] = biological target: T1, Tubulin (Homo sapiens) (UniProt P68371+Q9H4B7+P0DPH7+P68366+Q13509+Q71U36+P04350+Q3ZCM7+P07437+P68363+Q9BQE3+Q6PEY2+Q13885+Q9BVA1+Q9BUF5); assay: Inhibition of tubulin polymerization in human DU-145 cells assessed as inhibition of tubulin assembly at 0.1 uM incubated for 16 hrs by Hoechst staining based confocal microscopy analysis; type: cell-based
# [3] = biological target: T1, Tubulin (Homo sapiens); assay: Disruption of microtubule network in human DU-145 cells assessed as reduction in acetyl-alpha tubulin expression by Western blot analysis; type: cell-based; details: dose 0.03-0.3 µM
# [4] = tested on: DU-145; assay: Induction of apoptosis in human DU-145 cells assessed as live cells at 0.03 uM incubated for 48 hrs by Annexin V-FITC/PI staining based flow cytometry analysis (reference value: 94.94%); type: functional
# [5] = tested on: DU-145; assay: Induction of apoptosis in human DU-145 cells assessed as late apoptotic cells at 0.1 uM incubated for 48 hrs by Annexin V-FITC/PI staining based flow cytometry analysis (reference value: 2.05%); type: functional
# [6] = tested on: DU-145; assay: Induction of apoptosis in human DU-145 cells assessed as live cells at 0.3 uM incubated for 48 hrs by Annexin V-FITC/PI staining based flow cytometry analysis (reference value: 94.94%); type: functional
# [7] = tested on: DU-145; assay: Antiproliferative activity against human DU-145 cells assessed as inhibition of cell growth incubated for 48 hrs by real-time cell analysis; type: functional, cell-based; details: DU-145, 48 h
# [8] = tested on: NCI-H1299; assay: Antiproliferative activity against human NCI-H1299 cells assessed as inhibition of cell growth incubated for 72 hrs by MTT assay; type: functional, cell-based; details: NCI-H1299, 72 h
# [9] = tested on: BGC-823; assay: Antiproliferative activity against human BGC-823 cells assessed as inhibition of cell growth incubated for 72 hrs by MTT assay; type: functional, cell-based; details: BGC-823, 72 h
# [10] = tested on: HGC-27; assay: Antiproliferative activity against human HGC-27 cells assessed as inhibition of cell growth incubated for 72 hrs by MTT assay; type: functional, cell-based; details: HGC-27, 72 h
# [11] = tested on: SW1990; assay: Antiproliferative activity against human SW1990 cells assessed as inhibition of cell growth incubated for 72 hrs by MTT assay; type: functional, cell-based; details: SW1990, 72 h
# [12] = tested on: MCF7R; assay: Antiproliferative activity against paclitaxel-resistant human MCF7R cells assessed as inhibition of cell growth incubated for 72 hrs by MTT assay; type: functional, cell-based; details: read-out: IC50
# [13] = Stability in monkey liver microsomes assessed as half life incubated in presence of NADPH by LC-MS/MS analysis; type: ADME, Macaca mulatta, Microsome; details: rhesus monkey
# [14] = Half life in Kunming mouse at 2 mg/kg, iv by LC-MS/MS analysis; type: ADME, organism-based; details: in vivo
# [15] = Clearance in Kunming mouse at 2 mg/kg, iv by LC-MS/MS analysis; type: ADME, organism-based; details: in vivo
# [16] = Tmax in Kunming mouse at 20 mg/kg, po by LC-MS/MS analysis; type: ADME, organism-based; details: in vivo
# [17] = Cmax in Kunming mouse at 20 mg/kg, po by LC-MS/MS analysis; type: ADME, organism-based; set-up: dose 20 mg/kg, route po; details: in vivo
# [18] = AUC (0 to t) in Kunming mouse at 20 mg/kg, po by LC-MS/MS analysis; type: ADME, organism-based; set-up: dose 20 mg/kg, route po; details: in vivo
# [19] = tested on: DU-145; assay: Antitumor activity against human DU-145 cells xenografted in BALB/c nude mouse assessed as tumor growth inhibition at 10 mg/kg, po administered once daily and measured twice a week relative to control; type: functional; details: read-out: TGI
# [20] = Toxicity in BALB/c nude mouse xenografted with human DU-145 cells assessed as reduction in body weight at 5 mg/kg, po administered once daily and measured twice a week; type: organism-based; details: in vivo
# [21] = Toxicity in BALB/c nude mouse xenografted with human DU-145 cells assessed as reduction in body weight at 10 mg/kg, po administered once daily and measured twice a week; type: organism-based; set-up: scale not given: the % may be the effect or the level left; details: in vivo
# [22] = tested on: NCI-H1299; assay: Antitumor activity against human NCI-H1299 cells xenografted in BALB/c nude mouse assessed as suppression of tumor growth at 20 mg/kg, po administered once daily and measured twice a week relative to control; type: functional
# [23] = Toxicity in C57BL/6 mouse implanted with mouse B16-F10 cells assessed as […] at 20 mg/kg, po administered once daily and measured twice a week for 14 days; type: organism-based; details: in vivo, 336 h, time 14 day
# [24] = biological target: Voltage-gated inwardly rectifying potassium channel KCNH2 (Homo sapiens, UniProt Q12809); assay: Inhibition of hERG expressed in CHO cells by whole cell patch clamp method; type: toxicity, cell-based
# [25] = Mutagenicity in Salmonella typhimurium TA-102 at 0.5 to 500 ug per plate incubated for 72 hrs in presence or absence of S9 fraction by Ames test; type: toxicity, Salmonella enterica subsp. enterica serovar Typhimurium; details: in vivo, dose 0.5-500 µg
# [26] = Mutagenicity in Salmonella typhimurium TA-100 at 0.5 to 500 ug per plate incubated for 72 hrs in presence or absence of S9 fraction by Ames test; type: toxicity, Salmonella enterica subsp. enterica serovar Typhimurium; details: in vivo, dose 0.5-500 µg
# [27] = biological target: Sodium channel protein type 5 subunit alpha (Homo sapiens, UniProt Q14524); assay: Inhibition of human Nav1.5 expressed in CHO cells by manual patch clamp method; type: toxicity, cell-based
# [28] = biological target: L-type calcium channel alpha-1c/beta-2/alpha2delta-1 (Homo sapiens, UniProt P54289+Q08289+Q13936); assay: Inhibition of human alpha1c/beta2a/alpha2delta1 Cav1.2 expressed in HEK293 cells assessed as effect on calcium flux by FLIPR analysis; type: toxicity, cell-based
# [29] = Mutagenicity in Salmonella typhimurium TA-1535 at 0.5 to 500 ug per plate incubated for 72 hrs in presence or absence of S9 fraction by Ames test; type: toxicity, Salmonella enterica subsp. enterica serovar Typhimurium; details: in vivo, dose 0.5-500 µg
# [30] = Selectivity index, ratio of IC50 for cytotoxicity against African green monkey Vero cells to IC50 for antiproliferative activity against human DU-145 cells; type: toxicity, cell-based; details: Vero cells and DU-145 cells, read-out: Ratio IC50
# [31] = Cytotoxicity against African green monkey Vero cells assessed as reduction in cell viability measured after 48 hrs; type: toxicity, cell-based, Chlorocebus sabaeus
# [32] = Toxicity in po dosed ICR mouse assessed as maximum tolerated dose measured on day 14; type: organism-based; details: in vivo, time 14 day
# [33] = Toxicity in specific pathogen-free Kunming mouse assessed as pathological changes in liver at 10 mg/kg, po administered once daily and measured after 7 days by hematoxylin and eosin staining based analysis; type: organism-based; details: in vivo, 168 h, time 7 day
# [34] = tested on: A549; assay: cells; details: Homo sapiens, A549, 72 h
# [35] = tested on: NCI-H460; assay: cells; details: Homo sapiens, NCI-H460, 72 h
# Description: Antiproliferative activity against human NCI-H460 cells assessed as inhibition of cell growth incubated for 72 hrs by MTT assay
# [36] = tested on: MCF7; assay: cells; details: Homo sapiens, MCF7, 72 h
# Description: Antiproliferative activity against human MCF7 cells assessed as inhibition of cell growth incubated for 72 hrs by MTT assay
# [37] = tested on: MDA-MB-231; assay: cells; details: Homo sapiens, MDA-MB-231, 72 h
# [38] = tested on: HCT-116; assay: cells; details: Homo sapiens, HCT-116, 72 h
# Description: Antiproliferative activity against human HCT-116 cells assessed as inhibition of cell growth incubated for 72 hrs by MTT assay
# Chain of Sodium channel protein type 5 subunit alpha (Q14524 whole entry): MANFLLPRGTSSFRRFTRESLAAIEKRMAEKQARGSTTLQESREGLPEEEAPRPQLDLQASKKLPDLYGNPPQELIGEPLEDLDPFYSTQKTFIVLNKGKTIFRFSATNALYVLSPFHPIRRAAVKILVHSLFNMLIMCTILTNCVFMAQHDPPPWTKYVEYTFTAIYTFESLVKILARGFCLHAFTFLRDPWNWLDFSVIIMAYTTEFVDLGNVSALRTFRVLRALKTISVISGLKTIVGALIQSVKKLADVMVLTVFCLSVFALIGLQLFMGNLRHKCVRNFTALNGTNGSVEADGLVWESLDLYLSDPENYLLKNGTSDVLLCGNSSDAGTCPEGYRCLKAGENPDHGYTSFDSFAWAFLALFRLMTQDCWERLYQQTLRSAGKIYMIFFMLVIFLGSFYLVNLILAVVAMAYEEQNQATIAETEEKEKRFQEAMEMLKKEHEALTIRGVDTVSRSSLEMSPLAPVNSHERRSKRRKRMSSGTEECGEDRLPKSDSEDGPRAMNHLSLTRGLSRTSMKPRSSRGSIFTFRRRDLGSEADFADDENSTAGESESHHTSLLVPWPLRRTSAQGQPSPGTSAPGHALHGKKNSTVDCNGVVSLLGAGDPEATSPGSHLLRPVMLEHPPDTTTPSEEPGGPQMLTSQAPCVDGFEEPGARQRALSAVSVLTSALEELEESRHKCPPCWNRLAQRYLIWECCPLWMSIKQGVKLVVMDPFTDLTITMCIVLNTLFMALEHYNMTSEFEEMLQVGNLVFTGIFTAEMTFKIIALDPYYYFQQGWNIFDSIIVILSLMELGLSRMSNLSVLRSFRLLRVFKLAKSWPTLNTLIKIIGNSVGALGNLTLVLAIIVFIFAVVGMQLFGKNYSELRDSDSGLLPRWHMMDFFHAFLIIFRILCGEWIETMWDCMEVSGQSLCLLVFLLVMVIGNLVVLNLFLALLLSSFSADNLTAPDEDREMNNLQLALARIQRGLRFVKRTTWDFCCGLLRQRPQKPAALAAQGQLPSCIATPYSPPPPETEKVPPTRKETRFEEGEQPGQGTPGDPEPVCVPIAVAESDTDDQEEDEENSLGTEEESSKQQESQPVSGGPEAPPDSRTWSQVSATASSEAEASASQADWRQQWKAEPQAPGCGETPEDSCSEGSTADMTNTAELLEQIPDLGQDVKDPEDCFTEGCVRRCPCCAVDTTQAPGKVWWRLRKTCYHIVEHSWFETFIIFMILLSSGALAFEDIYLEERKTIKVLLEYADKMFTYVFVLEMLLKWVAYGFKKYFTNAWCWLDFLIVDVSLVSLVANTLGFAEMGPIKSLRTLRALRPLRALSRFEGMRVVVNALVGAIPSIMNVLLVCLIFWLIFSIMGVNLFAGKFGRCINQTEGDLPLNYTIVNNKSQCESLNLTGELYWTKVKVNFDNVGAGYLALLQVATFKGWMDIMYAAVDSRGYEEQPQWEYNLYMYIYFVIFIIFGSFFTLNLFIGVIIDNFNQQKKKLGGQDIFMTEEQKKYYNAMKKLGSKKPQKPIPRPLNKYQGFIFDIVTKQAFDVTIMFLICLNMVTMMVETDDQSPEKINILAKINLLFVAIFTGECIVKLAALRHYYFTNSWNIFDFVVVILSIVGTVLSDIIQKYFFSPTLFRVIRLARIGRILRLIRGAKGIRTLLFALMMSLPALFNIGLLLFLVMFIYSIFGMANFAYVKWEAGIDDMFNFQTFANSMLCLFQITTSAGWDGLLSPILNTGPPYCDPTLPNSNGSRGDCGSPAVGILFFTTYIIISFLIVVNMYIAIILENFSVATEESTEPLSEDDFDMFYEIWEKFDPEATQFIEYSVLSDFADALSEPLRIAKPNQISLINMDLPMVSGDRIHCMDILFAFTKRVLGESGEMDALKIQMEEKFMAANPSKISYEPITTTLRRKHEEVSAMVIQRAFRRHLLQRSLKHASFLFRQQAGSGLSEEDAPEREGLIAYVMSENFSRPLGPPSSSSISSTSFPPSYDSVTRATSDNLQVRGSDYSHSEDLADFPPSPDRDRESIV
# Chain of Voltage-gated inwardly rectifying potassium channel KCNH2 (Q12809 whole entry): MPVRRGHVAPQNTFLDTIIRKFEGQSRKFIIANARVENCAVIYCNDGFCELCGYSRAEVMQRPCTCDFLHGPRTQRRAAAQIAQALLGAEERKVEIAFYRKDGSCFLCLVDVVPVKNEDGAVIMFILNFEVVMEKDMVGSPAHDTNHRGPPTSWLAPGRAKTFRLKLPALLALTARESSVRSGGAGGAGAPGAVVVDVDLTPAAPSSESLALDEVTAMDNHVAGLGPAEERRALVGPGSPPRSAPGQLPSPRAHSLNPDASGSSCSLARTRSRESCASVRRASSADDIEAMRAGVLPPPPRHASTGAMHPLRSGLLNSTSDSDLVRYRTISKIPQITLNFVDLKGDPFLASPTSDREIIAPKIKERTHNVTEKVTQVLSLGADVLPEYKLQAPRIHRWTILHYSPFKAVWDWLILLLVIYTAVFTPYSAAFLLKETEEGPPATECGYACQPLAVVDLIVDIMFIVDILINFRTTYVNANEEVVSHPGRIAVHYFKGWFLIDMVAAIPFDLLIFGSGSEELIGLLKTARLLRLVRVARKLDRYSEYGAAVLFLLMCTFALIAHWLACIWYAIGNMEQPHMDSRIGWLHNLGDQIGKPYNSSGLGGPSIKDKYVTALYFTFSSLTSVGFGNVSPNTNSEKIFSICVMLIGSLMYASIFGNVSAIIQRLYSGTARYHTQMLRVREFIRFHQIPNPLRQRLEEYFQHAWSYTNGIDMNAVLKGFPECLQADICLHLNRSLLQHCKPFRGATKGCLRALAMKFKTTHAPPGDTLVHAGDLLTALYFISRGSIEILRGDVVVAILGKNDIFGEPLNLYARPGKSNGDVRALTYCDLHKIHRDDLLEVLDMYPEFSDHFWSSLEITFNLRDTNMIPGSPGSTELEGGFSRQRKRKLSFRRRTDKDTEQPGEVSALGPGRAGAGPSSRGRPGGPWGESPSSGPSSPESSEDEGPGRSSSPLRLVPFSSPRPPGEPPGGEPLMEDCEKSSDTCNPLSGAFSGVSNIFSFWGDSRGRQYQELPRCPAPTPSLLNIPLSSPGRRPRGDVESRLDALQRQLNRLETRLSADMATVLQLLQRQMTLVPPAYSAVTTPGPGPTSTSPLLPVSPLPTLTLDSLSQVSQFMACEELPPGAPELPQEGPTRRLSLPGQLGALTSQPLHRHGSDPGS
compound,measurement,setting,value
Cc1ccc(S(=O)(=O)Nc2cc(C(=O)NCc3ccc(C)nc3)ccc2C)cc1,Activity,[1],Active
same,inhibition,[2],Active
same,Activity,[3],Active
same,Activity,[4],73.88%
same,Activity,[5],26.61%
same,Activity,[6],37.88%
same,IC50,[7],10 nM
same,IC50,[8],4 nM
same,IC50,[9],21 nM
same,IC50,[10],6 nM
same,IC50,[11],15 nM
same,IC50,[12],14 nM
same,half-life,[13],95 min
same,half-life,[14],10.8 min
same,clearance,[15],61.5 mL/min/kg
same,Tmax,[16],4.98 min
same,Cmax,[17],2740 ng/mL
same,AUC(0-t),[18],2580 ng·h/mL
same,inhibition in vivo at 10 mg/kg,[19],62.8%
same,Activity,[20],Non-Toxic
same,Activity,[21],3.5%
same,Activity,[22],73.6%
same,Activity,[23],Toxic
same,IC50,[24],> 10000 nM
same,Activity,[25],Non-Toxic
same,Activity,[26],Non-Toxic
same,IC50,[27],> 30000 nM
same,IC50,[28],> 30000 nM
same,Activity,[29],Non-Toxic
same,selectivity ratio,[30],4
same,IC50 at 48 h,[31],40 nM
same,MTD at 336 h,[32],> 60 mg/kg
same,Activity,[33],Non-Toxic
same,IC50,[34],25 nM
same,IC50,[35],77 nM
same,IC50,[36],6 nM
same,IC50,[37],9 nM
same,IC50,[38],4 nM
